{"source": "patent US6429208B1", "about": "“Methods and compositions for restoring impaired cellular immune function” (Regents of the University of California, priority 1992, dated 2002)", "test_system": "Raji cells", "assay": "Cytotoxic T-cell 51Cr-release assay against Raji cells", "assay_type": "cell-based, human", "protocol": "Cytotoxic T-cells from HIV seropositive subjects “regained” their normal ability to lyse allogenic tumor cell line in the presence of ddAdo as shown in FIG. 10B. In this experiment, ddAdo was added either during the six days of generation/priming (middle column of FIG. 10B) or during the three hour cytotoxic assay (right column of FIG. 10B). The cytotoxic assay used was a standard assay. Briefly, 10^6 PBMC were primed and irradiated (3000 Rad) Raji B-lymphoblastoid cells (8:1 ratio) for six days and added to triplicates of ^51Cr-labeled target Raji cells in effector target ratios from 6.25 to 50. ^51Cr released to the supernatant was measured in a gamma counter. Percentage of specific ^51Cr-release was calculated as 100×(released by PBMC−spontaneous release)/(maximum release with Triton X−spontaneous release). ddAdo was added in concentrations of 10 or 100 ng/ml either during priming or lysis.", "data": [{"smiles": "C[C@H]1O[C@@H](n2cnc3c(N)ncnc32)C[C@@H]1O", "note": "[ddAdo, 2′,5′ dideoxyadenosine]", "values": [{"measurement": "Ability of cytotoxic T-cells from HIV seropositive subjects to lyse allogenic tumor cell line", "setting": "10 or 100 ng/ml during priming or lysis, FIG. 10B", "value": "regained"}, {"measurement": "Effect on target lysis by HIV seronegative cells", "setting": "HIV seronegative subjects", "value": "minimal effect"}, {"measurement": "Target lysis (specific ^51Cr-release)", "setting": "Ratio 1:12, ddAdo during priming, without 48% (±12)", "value": 76, "unit": "%"}, {"measurement": "Target lysis (specific ^51Cr-release)", "setting": "Ratio 1:25, without 61% (±15)", "value": 77, "unit": "%"}]}]}
